Results on four molecules are retold here after patent US12662507B2, “Cytosine-type bridged nucleoside amidite crystals and method for producing same” (Yamasa Corporation, priority 2020, dated 2026).

The data set can be described thus: Stability test: storage at 50° C. in tightly sealed glass vial, HPLC purity. It counts as physicochemical. The protocol: As used herein, the term “decomposition degree” is defined as a value obtained by subtracting a […] when the stability test is performed for a certain period of time under the following conditions. The purity can be determined by HPLC. A higher decomposition degree means that the decomposition progressed and the purity decreased.
• Temperature: 50° C.; • Storage conditions: 20 mg of crystal is placed in a glass vial and stored in a tightly sealed state; (HPLC Conditions) • Column: YMC-Triart C18, 150×4.6 mm I.D. (manufactured by YMC); • Eluent: 5 mM triethylammonium acetate (pH 7.0) containing 80 vol % acetonitrile; and • Detection method: detection by UV 280 nm.
• Temperature: 50° C.; • Storage conditions: 20 mg of each of crystals A to C or amorphous form was placed in a glass vial and stored in a tightly sealed state; and • Sampling time: after 1, 2, 3, 4, 6, and 20 (days), each specimen was sampled and subjected to HPLC analysis; (HPLC Conditions) • Column: YMC-Triart C18, 150×4.6 mm I.D. (manufactured by YMC) • Eluent: 5 mM triethylammonium acetate (pH 7.0) containing 80 vol % acetonitrile; and • Detection method: detection by UV 280 nm.
The leftmost column in the table indicates the number of elapsed days, and the column “Example 1 (Crystal A)” indicates the HPLC purity of the crystal A of the 5-methylcytosine-type bridged nucleoside amidite obtained in Example 1 (R^1=a benzamido group, R^2=a methyl group, R^3=a dimethoxytrityl group) after the corresponding number of elapsed days, and the column “Example 2 (crystal B)” indicates the HPLC purity of the crystal B of the 5-methylcytosine-type bridged nucleoside amidite obtained in Example 2 (R^1=a benzamido group, R^2=a methyl group, R^3=a dimethoxytrityl group) after the corresponding number of elapsed days, and the column “Example 3 (Crystal C) indicates the HPLC purity of the crystal C of 5-methylcytosine-type bridged nucleoside amidite obtained in Example 3 (R^1=a benzamido group, R^2=a methyl group, R^3=a dimethoxytrityl group) after the corresponding number of elapsed days, and the column “Control” indicates the HPLC purity of the amorphous form used as a control after the corresponding number of elapsed days. In the table, the cells marked by “-” indicate that no measurement was performed.

Setting [1] is: HPLC purity on day 0 minus HPLC purity after 20 days at 50° C.
Where [2] appears, read: after 1 day at 50° C., sealed glass vial.
The mark [3] stands for this setting: after 2 days at 50° C., sealed glass vial.
Where [4] appears, read: after 3 days at 50° C., sealed glass vial.
Where [5] appears, read: after 6 days at 50° C., sealed glass vial.
[6] abbreviates: after 20 days at 50° C., sealed glass vial.
The mark [7] stands for this setting: day 0 (start of stability test at 50° C.).
Where [8] appears, read: after 4 days at 50° C., sealed glass vial.

For `COc1ccc(C(OCC23COC(C(n4cc(C)c(NC(=O)c5ccccc5)nc4=O)O2)C3OP(OCCC#N)N(C(C)C)C(C)C)(c2ccccc2)c2ccc(OC)cc2)cc1` (centres unmarked) [Control, N^4-benzoyl-5′-O-(4,4′-dimethoxytrityl)-2′-O-4′-C-methylene-5-methylcytidine-3′-O—[O-(2-cyanoethyl)-N,N-diisopropylphosphoramidite], reference compound], the “Decomposition Degree” value under setting [1] is on record as 6.6 Δ % and the Decomposition Degree (stored at 50° C. for 20 days, in HPLC purity) is 6.6%. Further, the HPLC purity is, setting by setting: under setting [2], 98.2%; under setting [3], 97.9%; under setting [4], 97.9%; under setting [5], 96.9%; under setting [6], 92.1%; under setting [7], 98.7%.
With `COc1ccc(C(OCC23COC(C(n4cc(C)c(NC(=O)c5ccccc5)nc4=O)O2)C3OP(OCCC#N)N(C(C)C)C(C)C)(c2ccccc2)c2ccc(OC)cc2)cc1` (centres unmarked) [Example 1, N^4-benzoyl-5′-O-(4,4′-dimethoxytrityl)-2′-O-4′-C-methylene-5-methylcytidine-3′-O—[O-(2-cyanoethyl)-N,N-diisopropylphosphoramidite]], the “Decomposition Degree” value under setting [1] was 0.7 Δ %. The HPLC purity turned out to be 98.4% under setting [2]; 98.1% under setting [3]; 98.3% under setting [4]; 98.1% under setting [5]; 98.1% under setting [6]; 98.8% under setting [7].
Regarding `COc1ccc(C(OCC23COC(C(n4cc(C)c(NC(=O)c5ccccc5)nc4=O)O2)C3OP(OCCC#N)N(C(C)C)C(C)C)(c2ccccc2)c2ccc(OC)cc2)cc1` (centres unmarked) [Example 2, N^4-benzoyl-5′-O-(4,4′-dimethoxytrityl)-2′-O-4′-C-methylene-5-methylcytidine-3′-O—[O-(2-cyanoethyl)-N,N-diisopropylphosphoramidite]], the “Decomposition Degree” value under setting [1] is reported as 0.4 Δ %. For the same molecule, the HPLC purity came to 98.7% under setting [2]; 98.6% under setting [3]; 98.6% under setting [8]; 98.5% under setting [5]; 98.3% under setting [6]; 98.7% under setting [7].
Turning to `COc1ccc(C(OCC23COC(C(n4cc(C)c(NC(=O)c5ccccc5)nc4=O)O2)C3OP(OCCC#N)N(C(C)C)C(C)C)(c2ccccc2)c2ccc(OC)cc2)cc1` (centres unmarked) [Example 3, N^4-benzoyl-5′-O-(4,4′-dimethoxytrityl)-2′-O-4′-C-methylene-5-methylcytidine-3′-O—[O-(2-cyanoethyl)-N,N-diisopropylphosphoramidite]], under setting [1], the “Decomposition Degree” value is given as 0.5 Δ %. Also, the HPLC purity by setting is: under setting [2], 98.7%; under setting [3], 98.6%; under setting [8], 98.5%; under setting [5], 98.5%; under setting [6], 98.1%; under setting [7], 98.6%.
